ChEMBL document CHEMBL1201862, “PubChem BioAssay data set” (2004)
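All cell lines were grown in 96-well plates and treated with compound for 48 hours. GI50: concentration for 50% inhibition of growth.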 Calls of active or inactive are those of the source. Rule as the data show it: active = GI50 up to about 1.1 µM and inactive = higher.

Tests used:
Assay in all cases: DTP human tumour cell line panel, 48 h
SW-620 = test system: SW-620
HL-60 = test system: HL-60
NCI-H226 = test system: NCI-H226
HCT-116 = test system: HCT-116
KM12 = test system: KM12
SF-295 = test system: SF-295
OVCAR-5 = test system: OVCAR-5
SF-268 = test system: SF-268
UACC-62 = test system: UACC-62
TK-10 = test system: TK-10
HOP-92 = test system: HOP-92
M14 = test system: M14
SK-OV-3 = test system: SK-OV-3
SF-539 = test system: SF-539
HCT-15 = test system: HCT-15
ACHN = test system: ACHN
RPMI-8226 = test system: RPMI-8226
786-0 = test system: 786-0
SK-MEL-28 = test system: SK-MEL-28

Structure (SMILES)	GI50 (SW-620)	GI50 (HL-60)	GI50 (NCI-H226)	GI50 (HCT-116)	GI50 (KM12)	GI50 (SF-295)	GI50 (OVCAR-5)	GI50 (SF-268)	GI50 (UACC-62)	GI50 (TK-10)	GI50 (HOP-92)	GI50 (M14)	GI50 (SK-OV-3)	GI50 (SF-539)	GI50 (HCT-15)	GI50 (ACHN)	GI50 (RPMI-8226)	GI50 (786-0)	GI50 (SK-MEL-28)
COC(=O)CCC(=O)N1Cc2cc(C)ccc2N(C(=O)CCC(=O)OC)Cc2cc(C)ccc21	> 100 µM (inactive)	> 100 µM (inactive)	> 100 µM (inactive)	> 100 µM (inactive)	> 100 µM (inactive)	> 100 µM (inactive)	> 100 µM (inactive)	> 100 µM (inactive)	> 100 µM (inactive)	> 100 µM (inactive)	> 100 µM (inactive)	> 100 µM (inactive)	> 100 µM (inactive)	> 100 µM (inactive)	> 100 µM	> 100 µM (inactive)	> 100 µM (inactive)	> 100 µM (inactive)	> 100 µM (inactive)
COc1ccc(CN2CCC/C=C/CC(Cl)(Cl)C2=O)cc1	49.4 µM (inactive)	28.2 µM (inactive)	–	31.3 µM (inactive)	36.6 µM (inactive)	20.5 µM (inactive)	42.7 µM (inactive)	26.6 µM (inactive)	43 µM (inactive)	29.7 µM (inactive)	14.5 µM (inactive)	20.1 µM (inactive)	27.9 µM (inactive)	33.6 µM (inactive)	34.2 µM	21 µM (inactive)	24.3 µM (inactive)	35.8 µM (inactive)	46.7 µM (inactive)
CC1=CC(=O)C(=O)C2=C1OC1(C2)C(C)CCC2C3(C)CCC(O)C(C)(C)C3CCC21C (stereo unspecified)	22.1 µM (inactive)	2.22 µM (inactive)	18.2 µM (inactive)	15.3 µM (inactive)	15.7 µM (inactive)	15.7 µM (inactive)	18.2 µM (inactive)	26.4 µM (inactive)	15.8 µM (inactive)	18.8 µM (inactive)	17.3 µM (inactive)	18.8 µM (inactive)	29 µM (inactive)	> 100 µM (inactive)	19.4 µM	16.9 µM (inactive)	23.6 µM (inactive)	17.4 µM (inactive)	20.5 µM (inactive)
Cc1ccc(S(=O)(=O)N/N=C/C(C)C)cc1	> 100 µM (inactive)	> 100 µM (inactive)	–	> 100 µM (inactive)	> 100 µM (inactive)	> 100 µM (inactive)	> 100 µM (inactive)	> 100 µM (inactive)	> 100 µM (inactive)	> 100 µM (inactive)	24.9 µM (inactive)	> 100 µM (inactive)	> 100 µM (inactive)	> 100 µM (inactive)	> 100 µM	> 100 µM (inactive)	> 100 µM (inactive)	> 100 µM (inactive)	–
COc1cc2c(oc(=O)c3c4oc([Si](C)(C)C)cc4cc(OC)c23)c2cccc(OCc3ccccc3)c12	68.9 µM (inactive)	43.3 µM (inactive)	42.5 µM (inactive)	43.2 µM (inactive)	> 64.3 µM (inactive)	19 µM (inactive)	> 70.3 µM (inactive)	26.5 µM (inactive)	17.4 µM (inactive)	37.2 µM (inactive)	34.8 µM (inactive)	26.3 µM (inactive)	38.3 µM (inactive)	20.7 µM (inactive)	> 70.5 µM	51.4 µM (inactive)	28.4 µM (inactive)	19.1 µM (inactive)	38.3 µM (inactive)
O=C(Nc1nnc(S)[nH]1)C(=O)C(C(=O)c1ccc2ccccc2c1)C1OC(=O)c2ccccc21 (stereo unspecified)	28.9 µM (inactive)	–	4.85 µM (inactive)	13.7 µM (inactive)	26.8 µM (inactive)	–	44.3 µM (inactive)	16.6 µM (inactive)	15.6 µM (inactive)	21.6 µM (inactive)	25.8 µM (inactive)	19.1 µM (inactive)	23.4 µM (inactive)	5.56 µM (inactive)	27.9 µM	> 100 µM (inactive)	7.69 µM (inactive)	14.9 µM (inactive)	14.8 µM (inactive)
N#C/C(=C1\OC(=O)C(c2ccc(Br)cc2)=C1O)c1ccc(Br)cc1	14.3 µM (inactive)	11.6 µM (inactive)	18.1 µM (inactive)	17.3 µM (inactive)	14.9 µM (inactive)	17.7 µM (inactive)	19.1 µM (inactive)	14.7 µM (inactive)	11.6 µM (inactive)	22.1 µM (inactive)	16.1 µM (inactive)	14.8 µM (inactive)	18.5 µM (inactive)	16.1 µM (inactive)	–	15.7 µM (inactive)	15.1 µM (inactive)	14.7 µM (inactive)	17.2 µM (inactive)
Cc1cc(Cl)ccc1NC(=O)C(=O)Cc1nc2ccccc2o1	> 100 µM (inactive)	> 100 µM (inactive)	–	–	> 100 µM (inactive)	> 100 µM (inactive)	> 100 µM (inactive)	> 100 µM (inactive)	> 100 µM (inactive)	> 100 µM (inactive)	> 100 µM (inactive)	> 100 µM (inactive)	> 100 µM (inactive)	> 100 µM (inactive)	> 100 µM	> 100 µM (inactive)	> 100 µM (inactive)	> 100 µM (inactive)	> 100 µM (inactive)
CN(C)CCNc1ccccn1	> 100 µM (inactive)	> 100 µM (inactive)	> 100 µM (inactive)	> 100 µM (inactive)	> 100 µM (inactive)	> 100 µM (inactive)	> 100 µM (inactive)	> 100 µM (inactive)	> 100 µM (inactive)	> 100 µM (inactive)	> 100 µM (inactive)	> 100 µM (inactive)	–	–	> 100 µM	> 100 µM (inactive)	–	> 100 µM (inactive)	> 100 µM (inactive)
CN1NC(c2ccccc2)=C(C#N)C(=O)CC1c1ccccc1Cl (stereo unspecified)	> 100 µM (inactive)	> 100 µM (inactive)	> 100 µM (inactive)	> 100 µM (inactive)	> 100 µM (inactive)	> 100 µM (inactive)	> 100 µM (inactive)	> 100 µM (inactive)	–	> 100 µM (inactive)	> 100 µM (inactive)	> 100 µM (inactive)	> 100 µM (inactive)	–	63.4 µM	> 100 µM (inactive)	> 100 µM (inactive)	> 100 µM (inactive)	> 100 µM (inactive)
COc1ccc2c(c1)OC[C@@H]1c3cc4c(cc3O[C@H]21)OCO4	> 100 µM (inactive)	> 100 µM (inactive)	> 100 µM (inactive)	> 100 µM (inactive)	> 100 µM (inactive)	> 100 µM (inactive)	> 100 µM (inactive)	75 µM (inactive)	–	> 100 µM (inactive)	70 µM (inactive)	> 100 µM (inactive)	> 100 µM (inactive)	> 100 µM (inactive)	> 100 µM	> 100 µM (inactive)	> 100 µM (inactive)	> 100 µM (inactive)	> 100 µM (inactive)
CC(=O)OC1CCn2nnc(CO)c21 (stereo unspecified)	> 100 µM (inactive)	–	> 100 µM (inactive)	> 100 µM (inactive)	> 100 µM (inactive)	> 100 µM (inactive)	> 100 µM (inactive)	–	> 100 µM (inactive)	> 100 µM (inactive)	> 100 µM (inactive)	–	> 100 µM (inactive)	58.5 µM (inactive)	> 100 µM	–	> 100 µM (inactive)	> 100 µM (inactive)	> 100 µM (inactive)
CCOC(=O)Cn1c(=O)[nH]c(=O)c2[nH]cnc21	> 100 µM (inactive)	> 100 µM (inactive)	–	> 100 µM (inactive)	> 100 µM (inactive)	–	> 100 µM (inactive)	> 100 µM (inactive)	> 100 µM (inactive)	> 100 µM (inactive)	–	> 100 µM (inactive)	> 100 µM (inactive)	> 100 µM (inactive)	> 100 µM	> 100 µM (inactive)	–	> 100 µM (inactive)	> 100 µM (inactive)
CCOC(=O)C(C)(C)/C=C\C(Cl)=C(Cl)Cl	> 100 µM (inactive)	> 100 µM (inactive)	> 100 µM (inactive)	> 100 µM (inactive)	> 100 µM (inactive)	> 100 µM (inactive)	> 100 µM (inactive)	> 100 µM (inactive)	> 100 µM (inactive)	> 100 µM (inactive)	> 100 µM (inactive)	> 100 µM (inactive)	> 100 µM (inactive)	> 100 µM (inactive)	–	> 100 µM (inactive)	> 100 µM (inactive)	> 100 µM (inactive)	> 100 µM (inactive)
O=[N+]([O-])c1ccc(-c2noc(-c3ccc(Cl)cc3)c2C2=NCCN2)cc1	> 100 µM (inactive)	> 100 µM (inactive)	> 100 µM (inactive)	> 100 µM (inactive)	> 100 µM (inactive)	> 100 µM (inactive)	> 100 µM (inactive)	> 100 µM (inactive)	> 100 µM (inactive)	–	–	> 100 µM (inactive)	–	> 100 µM (inactive)	> 100 µM	> 100 µM (inactive)	> 100 µM (inactive)	> 100 µM (inactive)	> 100 µM (inactive)
COc1ccc(-c2cc(C(=O)Nc3cc(C(F)(F)F)cc(C(F)(F)F)c3)c3ccccc3n2)cc1	7.94 µM (inactive)	21.3 µM (inactive)	17.1 µM (inactive)	6.19 µM (inactive)	13.2 µM (inactive)	10.3 µM (inactive)	24.7 µM (inactive)	14.4 µM (inactive)	21.6 µM (inactive)	13.9 µM (inactive)	–	10.2 µM (inactive)	–	12.3 µM (inactive)	11.4 µM	12.5 µM (inactive)	6.27 µM (inactive)	11.7 µM (inactive)	27.7 µM (inactive)
